Test system: DLB rats
Assay: Object recognition test in DLB rats
Assay type: in vivo, rat
Settings: group A3, 100 mg/kg/day IP for 27 days, test on 27th day, p<0.05
Protocol: Saline is also used to be administrated to the normal rats of group A1.
Recognition ability of the rats of groups A1-A3 is measured using the object recognition test (Ho et al., Behav Brain Res 268: 177-184, 2014). Specifically, on the 25th & 26th day, the rat “M” under the test is placed in an open box, shown as FIG. 2a, for 5 minutes. Three flavorless objects (objects O1, O2 & O3) with the same size, color, shape and material are respectively fixed at three corners of the open box.
On the 27th day, the rat “M” under the test is first placed in the open box shown as FIG. 2a, and the time spent exploring the object O1 (T01) and the total time spent exploring the objects O1, O2 & O3 (TO1+O2+O3) are recorded, respectively. The percentage of the exploration time spent on the object O1 is calculated as (TO1/TO1+O2+O3)*100%. After 5 minutes, a novel object O4 with different size, color, shape and material is used to replace the object O1 (shown in FIG. 2b), and the rat “M” under the test is placed in the open box. The time spent exploring the novel object O4 (TO4) and the total time spent exploring the objects O2 & O3 and the novel object O4 (TO2+O3+O4) are respectively recorded, and the percentage of the exploration time spent on the novel object O4 is calculated as (TO4/TO2+O3+O4)*100%.

CO/N=C(\C(=O)N[C@@H]1C(=O)N2C(C(=O)O)=C(CSc3nc(=O)c(=O)[nH]n3C)CS[C@H]12)c1csc(N)n1 [ceftriaxone]
recognition of the novel object O4 (percentage of time exploring object): can recognize the novel object O4

Source: patent publication US20190030042A1, “Method for Treating Dementia with Lewy Bodies” (BrainX CORPORATION, priority 2017, published 2019)
